Measurements taken from the supplement of paper PMC10307832.

Key:
Test in all cases: relative viability (nuclei count vs DMSO), 5 days (fraction); higher = more cells survive
[1] = compound: NCC(=O)Nc1ccc(-n2nc(C(F)(F)F)cc2-c2ccc3c(ccc4ccccc43)c2)cc1 + Cc1nc(Nc2ncc(C(=O)Nc3c(C)cccc3Cl)s2)cc(N2CCN(CCO)CC2)n1 [Dasatinib] (partner 0.075 µM)
Outline: (§1)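 Lung cancer cell lines were pin-tool dosed in 1536-well plates on the day after seeding, with either a lone drug or a fixed anchor-drug dose plus five library-drug doses (not always all listed) in √10 steps. Nuclei were counted on 4× images after 5 days. Relative viability is the ratio of treated-well to vehicle-well nuclei counts, with each value a median of duplicate plates.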

kb NB 142-70 + Lapatinib = compound: C1CSC2=C(C(=O)N1)SC3=C2C=C(C=C3)O [kb NB 142-70] + CS(=O)(=O)CCNCc1ccc(-c2ccc3ncnc(Nc4ccc(OCc5cccc(F)c5)c(Cl)c4)c3c2)o1 [Lapatinib] (partner 2 µM)
Outline: as §1

[2] = compound: NCC(=O)Nc1ccc(-n2nc(C(F)(F)F)cc2-c2ccc3c(ccc4ccccc43)c2)cc1 + NC(=O)Nc1cc(-c2cccc(F)c2)sc1C(=O)N[C@H]1CCCNC1 [AZD7762] (partner 0.2 µM)
Outline: as §1

[3] = compound: NCC(=O)Nc1ccc(-n2nc(C(F)(F)F)cc2-c2ccc3c(ccc4ccccc43)c2)cc1 + CCNC(=O)c1noc(-c2cc(C(C)C)c(O)cc2O)c1-c1ccc(CN2CCOCC2)cc1 [Luminespib] (partner 0.01 µM)
Outline: as §1

Cell Line	relative viability ([1]; first compound 0.02 µM)	relative viability ([1]; first compound 0.06325 µM)	relative viability ([1]; first compound 0.2 µM)	relative viability ([1]; first compound 0.6325 µM)	relative viability ([1]; first compound 2 µM)	relative viability (kb NB 142-70 + Lapatinib; first compound 0.1 µM)	relative viability (kb NB 142-70 + Lapatinib; first compound 1 µM)	relative viability (kb NB 142-70 + Lapatinib; first compound 3.162 µM)	relative viability ([2]; first compound 0.02 µM)	relative viability ([2]; first compound 0.06325 µM)	relative viability ([2]; first compound 0.2 µM)	relative viability ([2]; first compound 0.6325 µM)	relative viability ([2]; first compound 2 µM)	relative viability ([3]; first compound 0.02 µM)	relative viability ([3]; first compound 0.06325 µM)	relative viability ([3]; first compound 0.2 µM)	relative viability ([3]; first compound 0.6325 µM)	relative viability ([3]; first compound 2 µM)
201T	0.518	0.571	0.56	0.53	0.542	1.05	1.06	1.06	0.599	0.657	0.625	0.656	0.601	1.1	1.07	1.11	1.03	1.06
A549						0.979	0.928	0.428										
A-427		0.692	0.724	0.682	0.672	1.12	1.14	1.04	0.757	0.719	0.854	0.693	0.786	0.886	0.849	1.06	0.864	0.996
ABC-1	0.613	0.602		0.59	0.49	0.946	1.22	1.07	0.811	0.899		0.758	0.866	0.478	0.813		0.372	0.748
BEN	0.283	0.332	0.244	0.333	0.304	0.731	0.66	0.519	0.627	0.76	0.789	0.798	0.628	0.254	0.67	0.211	0.467	0.311
CAL-12T	0.494	0.691	0.454	0.425	0.495	0.673	0.673	0.496	0.739	0.622	0.718	0.669	0.588	0.54	0.22	0.531	0.536	0.463
COR-L23	0.481	0.504	0.566	0.481	0.531	0.972	1	0.586						0.599	0.652	0.772	0.57	0.757
COR-L 105	0.388	0.426	0.362	0.418	0.413	0.382	0.427	0.361						0.915	0.78	1.01	0.704	1.15
Calu-6						1.07	0.972	0.627										
ChaGo-K-1	0.53	0.604	0.47	0.646	0.579				0.81	0.869	0.807	0.913	0.897	0.614	0.501	0.54	0.548	0.567
EBC-1						0.233	0.211	0.217										
EKVX	0.554	0.6	0.648	0.527	0.488	0.263	0.216	0.235	0.748	0.823	0.651	0.607	0.738	0.957	0.923	0.894	0.842	0.909
